The results in this text go back to US7396835B2, “Process for the preparation of tubulin inhibitors” (Wyeth, priority 2003, dated 2008).

Counter-ions that a name gives are not always drawn.

The nature of this data set: Water uptake and stability of the succinate salt under relative humidity. In kind it is physicochemical. Conditions: about 20° C. to about 30° C. On the procedure: To a suspension of NaH (40.9 g, 1.02 mol, 60% in oil) in anhydrous THF (750 mL) is added 3-methylamino-propan-1-ol (115 g, 1.21 mol) at about 20-30° C. dropwise over 30 min. The mixture is stirred for 30 min. Then, a solution of [5-chloro-6-(2,4,6-trifluoro-phenyl)-[1,2,4]triazolo[1,5-a]pyrimidin-7-yl]-((1S)-2,2,2-trifluoro-1-methyl-ethyl)-amine (150 g, 0.379 mol) in THF (150 mL) is added slowly over 15 min. The mixture is heated to 60° C. and stirred for 16 h, then cooled to 0-6° C. Cold water (1500 mL) is added dropwise while maintain the temperature between 10±3° C. THF is removed by distillation. The reaction mixture is extracted with t-butylmethyl ether (TBME, 2×1000 mL) and to the separated aqueous phase is added in portions succinic acid (296 g, 2.51 mol) is added in portions and followed by addition of TBME (1000 mL). The mixture is cooled to 3±3° C. and stirred for 1 h. The crude solid product is filtered, washed with cold water (150 mL) and TBME (2×400 mL). The wet solid is dissolved into water (2000 mL) at about 75° C. The solution is filtered at 60-70° C. and cooled to 0° C. over 1 h and stirred for 1 h at this temperature. The solid is filtered and dried at 35° C./10 mmHg for 20 h to give a white solid in anhydrous form (175 g, 80%, >99% HPLC area purity and 99% ee). […]

With `CNCCCOc1cc(F)c(-c2c(Cl)nc3ncnn3c2N[C@@H](C)C(F)(F)F)c(F)c1` [Example 4, 5-Chloro-6-{2,6-difluoro-4-[3-(methylamino)propoxy]phenyl}-N-[(1S)-2,2,2-trifluoro-1-methylethyl][1,2,4]triazolo[1,5-a]pyrimidin-7-amine Succinate Salt Dihydrate], the “stability of the dihydrate” value (5%-100% relative humidity) is “stable”. The “water absorbed by the anhydrous compound” value (anhydrous succinate salt, drying dish of 80%-100% relative humidity, 24 h, uptake then stopped) is reported as 5.8 % wt.
